# Assay results taken from patent EP1027361B1, “6,11-BRIDGED ERYTHROMYCIN DERIVATIVES” (Abbott Laboratories, priority 1997, dated 1999).
# Key:
# Test in all cases: in vitro antibacterial activity, agar dilution MIC
# Format in all cases: cell-based
# [1] = test system: Staphylococcus aureus A5177; design: unit not given here; settings: organism code BB, BHI agar, 35-37 °C, 20 to 24 hours
# Description: (§1) Representative compounds of the present invention were assayed in vitro for antibacterial activity as follows: Twelve petri dishes containing successive aqueous dilutions of the test compound mixed with 10 mL of sterilized Brain Heart Infusion (BHI) agar (Difco 0418-01-5) were prepared. Each plate was inoculated with 1:100 (or 1:10 for slow-growing strains, such as Micrococcus and Streptococcus) dilutions of up to 32 different microorganisms, using a Steers replicator block. […] In addition, a control plate, using BHI agar containing no test compound, was prepared and incubated at the beginning and end of each test
# (§2) An additional plate containing a compound having known susceptibility patterns for the organisms being tested and belonging to the same antibiotic class as the test compound was also prepared and incubated as a further control, as well as to provide test-to-test comparability.
# (§3) After incubation, each plate was visually inspected. The minimum inhibitory concentration (MIC) was defined as the lowest concentration of drug yielding no growth, a slight haze, or sparsely isolated colonies on the inoculum spot as compared to the growth control.
# [2] = test system: Mycobacterium smegmatis ATCC 114; design: unit not given here; settings: organism code UU, BHI agar, 35-37 °C, 20 to 24 hours
# Description: as §1, §2, §3
# Escherichia coli JUHL = settings: organism code QQ, BHI agar, 35-37 °C, 20 to 24 hours
# Description: (§4) Erythromycin A was used for this purpose.
# (§5) After incubation, each plate was visually inspected.
# Escherichia coli SS = settings: organism code RR, BHI agar, 35-37 °C, 20 to 24 hours
# Description: as §4, §5
# [3] = test system: Enterococcus faecium ATCC 8043; settings: organism code II, BHI agar, 35-37 °C, 20 to 24 hours
# Description: as §4, §5
# [4] = test system: Staphylococcus aureus CMX 642A; settings: organism code DD, BHI agar, 35-37 °C, 20 to 24 hours
# Description: as §4, §5
# [5] = test system: Micrococcus luteus ATCC 4698; settings: organism code PP, BHI agar, 35-37 °C, 20 to 24 hours
# Description: as §4, §5
# [6] = test system: Streptococcus Pheumoniae GYR 1171; settings: organism code YY, BHI agar, 35-37 °C, 20 to 24 hours
# Description: as §4, §5
# [7] = test system: Staphylococcus aureus CMX 553; settings: organism code FF, BHI agar, 35-37 °C, 20 to 24 hours
# Description: as §4, §5
# [8] = test system: Staphylococcus epidermidis 3519; settings: organism code HH, BHI agar, 35-37 °C, 20 to 24 hours
# Description: as §4, §5
# [9] = test system: Nocardia Asteroides ATCC9970; settings: organism code VV, BHI agar, 35-37 °C, 20 to 24 hours
# Description: as §4, §5
# [10] = test system: Micrococcus luteus ATCC 9341; settings: organism code OO, BHI agar, 35-37 °C, 20 to 24 hours
# Description: as §4, §5
# [11] = test system: Streptococcus Pheumoniae 5649; settings: organism code ZZA, BHI agar, 35-37 °C, 20 to 24 hours
# Description: as §4, §5
# [12] = test system: Haemophilis Influenzae DILL AMP R; settings: organism code WW, BHI agar, 35-37 °C, 20 to 24 hours
# Description: as §4, §5
# [13] = test system: Streptococcus Pheumoniae ATCC6303; design: unit not given here; settings: organism code XX, BHI agar, 35-37 °C, 20 to 24 hours
# Description: as §4, §5
# [14] = test system: Staphylococcus aureus ATCC 6538P; design: unit not given here; settings: organism code AA, BHI agar, 35-37 °C, 20 to 24 hours
# Description: as §4, §5
# [15] = test system: Streptococcus bovis A-5169; design: unit not given here; settings: organism code JJ, BHI agar, 35-37 °C, 20 to 24 hours
# Description: as §4, §5
# [16] = test system: Streptococcus agalactiae CMX 508; design: unit not given here; settings: organism code KK, BHI agar, 35-37 °C, 20 to 24 hours
# Description: as §4, §5
# [17] = test system: Streptococcus pyogenes EES61; design: unit not given here; settings: organism code LL, BHI agar, 35-37 °C, 20 to 24 hours
# Description: as §4, §5
# [18] = test system: Streptococcus Pheumoniae 5979; settings: organism code ZZ, BHI agar, 35-37 °C, 20 to 24 hours
# Description: as §1, §2, §3
# [19] = test system: Streptococcus pyogenes PIU 2548; settings: organism code NN, BHI agar, 35-37 °C, 20 to 24 hours
# Description: as §1, §2, §3
# Escherichia coli DC-2 = settings: organism code SS, BHI agar, 35-37 °C, 20 to 24 hours
# Description: as §1, §2, §3
# [20] = test system: Streptococcus pyogenes 930; settings: organism code MM, BHI agar, 35-37 °C, 20 to 24 hours
# Description: as §1, §2, §3
# [21] = test system: Staphylococcus aureus 1775; settings: organism code GG, BHI agar, 35-37 °C, 20 to 24 hours
# Description: as §1, §2, §3
# Candida albicans CCH 442 = settings: organism code TT, BHI agar, 35-37 °C, 20 to 24 hours
# Description: as §1, §2, §3
# [22] = test system: Staphylococcus aureus A-5278; settings: organism code CC, BHI agar, 35-37 °C, 20 to 24 hours
# Description: as §1, §2, §3
# [23] = test system: Staphylococcus aureus NCTC10649M; settings: organism code EE, BHI agar, 35-37 °C, 20 to 24 hours
# Description: as §4, §5
Structure (SMILES),minimum inhibitory concentration (MIC) [1],minimum inhibitory concentration (MIC) [2],minimum inhibitory concentration (MIC) (Escherichia coli JUHL),minimum inhibitory concentration (MIC) (Escherichia coli SS),minimum inhibitory concentration (MIC) [3],minimum inhibitory concentration (MIC) [4],minimum inhibitory concentration (MIC) [5],minimum inhibitory concentration (MIC) [6],minimum inhibitory concentration (MIC) [7],minimum inhibitory concentration (MIC) [8],minimum inhibitory concentration (MIC) [9],minimum inhibitory concentration (MIC) [10],minimum inhibitory concentration (MIC) [11],minimum inhibitory concentration (MIC) [12],minimum inhibitory concentration (MIC) [13],minimum inhibitory concentration (MIC) [14],minimum inhibitory concentration (MIC) [15],minimum inhibitory concentration (MIC) [16],minimum inhibitory concentration (MIC) [17],minimum inhibitory concentration (MIC) [19],further results
"CC[C@H]1OC(=O)[C@H](C)[C@@H](O[C@H]2C[C@@](C)(OC)[C@@H](O)[C@H](C)O2)[C@H](C)[C@@H](O[C@@H]2O[C@H](C)C[C@H](N(C)C)[C@H]2O)[C@@]2(C)C[C@@H](C)C(=O)[C@H](C)[C@H]3N(CCNCc4cccc(c4)C=CCO2)C(=O)O[C@]13C [Example 11, Compound of Formula (I), 2'-R^p is H, 4""-R^p is H, m is 2, A is NH, B is-(CH2)q-, q is 1, D is 1,3-phenylene, E is-(CH2)r-CH=CH-, r is 0, n is 1]",50,0.2,>100,6.2,0.2,3.1,3.1,0.25,3.1,3.1,0.2,0.2,32,32,0.12,3.1,0.1,0.1,0.2,12.5,minimum inhibitory concentration (MIC) [18]: >128; minimum inhibitory concentration (MIC) (Escherichia coli DC-2): >100; minimum inhibitory concentration (MIC) [20]: >100; minimum inhibitory concentration (MIC) [21]: >100; minimum inhibitory concentration (MIC) (Candida albicans CCH 442): >100; minimum inhibitory concentration (MIC) [22]: >100
"CC[C@H]1OC(=O)[C@H](C)[C@@H](O[C@H]2C[C@@](C)(OC)[C@@H](O)[C@H](C)O2)[C@H](C)[C@@H](O[C@@H]2O[C@H](C)C[C@H](N(C)C)[C@H]2O)[C@](C)(O)C[C@@H](C)C(=O)[C@H](C)[C@@H](O)[C@]1(C)O [Ery. A, Erythromycin A, reference compound]",3.1,3.1,>100,0.78,0.05,0.39,0.2,0.06,0.39,0.39,0.1,0.05,16,4,0.06,0.2,0.02,0.05,0.05,6.2,minimum inhibitory concentration (MIC) [23]: 0.39; minimum inhibitory concentration (MIC) (Escherichia coli DC-2): >100; minimum inhibitory concentration (MIC) [20]: >100; minimum inhibitory concentration (MIC) [21]: >100; minimum inhibitory concentration (MIC) (Candida albicans CCH 442): >100; minimum inhibitory concentration (MIC) [22]: >100
"CC[C@H]1OC(=O)[C@H](C)[C@@H](O[C@H]2C[C@@](C)(OC)[C@@H](O)[C@H](C)O2)[C@H](C)[C@@H](O[C@@H]2O[C@H](C)C[C@H](N(C)C)[C@H]2O)[C@@]2(C)C[C@@H](C)C(=O)[C@H](C)[C@H]3N(CCNC(=O)c4ccccc4C=CCO2)C(=O)O[C@]13C [Example 4, Compound of Formula (I), 2'-R^p is H, 4""-R^p is H, m is 2, A is NH, B is -C(O)-(CH2)q-, q is 0, D is 1,2-phenylene, E is-(CH2)r-CH=CH-, r is 0, n is 1]",25,3.1,100,6.2,0.39,1.56,1.56,0.03,1.56,1.56,0.2,0.2,16,16,0.03,1.56,0.2,0.2,0.39,12.5,minimum inhibitory concentration (MIC) [18]: >128; minimum inhibitory concentration (MIC) (Escherichia coli DC-2): >100; minimum inhibitory concentration (MIC) [20]: >100; minimum inhibitory concentration (MIC) [21]: >100; minimum inhibitory concentration (MIC) (Candida albicans CCH 442): >100; minimum inhibitory concentration (MIC) [22]: >100
